Earlier results on one molecule are cited in patent US20080139483A1, “DRUG COMBINATION FOR HYPERTENSIVE DISORDERS” (priority 2006, published 2008).

The structures appear in SMILES notation.

One data set relates to patients with PAH. The settings on record: does not appear to be dose related.

As for `COC(c1ccccc1)(c1ccccc1)[C@H](Oc1nc(C)cc(C)n1)C(=O)O` [ambrisentan], the “drug interactions (p450 induction or inhibition)” value in the data set with p450 is “no p450 induction or inhibition”. In the data set on patients with PAH, the potential liver toxicity result is “low incidence and severity of potential liver toxicity”.
